Values joined by “and” are separate entries in the source; they are usually repeats but may differ in a detail not shown here. Equal entries are not always repeated. Inconclusive results and toxic doses are left out.
System: CD2F1 mice, L1210 leukemia ip, survival T/C
Assay: NCI In Vivo Anticancer Drug Screen. Data for tumor model L1210 Leukemia (intraperitoneal) in CD2F1 (CDF1) mice
Conditions: higher = longer survival
Procedure, shortened: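 Compound-dosed mice with transplantable tumor versus matched vehicle controls; endpoint ratio T/C reported.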

[1] = endpoint: mean survival time, dose: 100.0 mg/kg/injection, schedule: Q04DX003 (ip), vehicle: saline with Tween-80
[2] = endpoint: mean survival time, dose: 400.0 mg/kg/injection, schedule: Q04DX003 (ip), vehicle: saline with Tween-80
[3] = endpoint: mean survival time, dose: 50.0 mg/kg/injection, schedule: Q01DX009 (ip), vehicle: saline with Tween-80
[4] = endpoint: mean survival time, dose: 100.0 mg/kg/injection, schedule: Q01DX009 (ip), vehicle: saline with Tween-80
[5] = endpoint: mean survival time, dose: 200.0 mg/kg/injection, schedule: Q01DX009 (ip), vehicle: saline with Tween-80
[6] = endpoint: mean survival time, dose: 25.0 mg/kg/injection, schedule: Q01DX009 (ip), vehicle: saline with Tween-80
[7] = endpoint: mean survival time, dose: 100.0 mg/kg/injection, schedule: Q04DX002 (ip), vehicle: saline with Tween-80
[8] = endpoint: mean survival time, dose: 200.0 mg/kg/injection, schedule: Q04DX002 (ip), vehicle: saline with Tween-80
[9] = endpoint: mean survival time, dose: 400.0 mg/kg/injection, schedule: Q04DX002 (ip), vehicle: saline with Tween-80
[10] = endpoint: mean survival time, dose: 100.0 mg/kg/injection, schedule: Q04DX003 (ip), vehicle: Klucel (hydroxypropylcellulose) (HPC)
[11] = endpoint: mean survival time, dose: 200.0 mg/kg/injection, schedule: Q04DX003 (ip), vehicle: Klucel (hydroxypropylcellulose) (HPC)
[12] = endpoint: mean survival time, dose: 400.0 mg/kg/injection, schedule: Q04DX003 (ip), vehicle: Klucel (hydroxypropylcellulose) (HPC)
[13] = endpoint: mean survival time, dose: 400.0 mg/kg/injection, schedule: Q01DX009 (ip), vehicle: saline with Tween-80
[14] = endpoint: mean survival time, dose: 200.0 mg/kg/injection, schedule: Q04DX003 (ip), vehicle: saline with Tween-80
[15] = endpoint: mean survival time, dose: 100.0 mg/kg/injection, schedule: Q01DX009 (ip), vehicle: saline

## O=C1C2(Cl)C(Cl)=C(Cl)C1(Cl)C1(Cl)C(Cl)=C(Cl)C(=O)C21Cl (configuration not stated)
endpoint: mean survival time, dose: 10.0 mg/kg/injection, schedule: Q01DX009 (ip), vehicle: saline with Tween-80
  T/C: 94 % of control
endpoint: mean survival time, dose: 20.0 mg/kg/injection, schedule: Q01DX009 (ip), vehicle: saline with Tween-80
  T/C: 94 % of control
endpoint: mean survival time, dose: 40.0 mg/kg/injection, schedule: Q01DX009 (ip), vehicle: saline with Tween-80
  T/C: 92 % of control

## O=C1N(Cc2ccccc2)CC2C(c3ccccc3)NNC12O (configuration not stated)
[1]
  T/C: 89 % of control
[2]
  T/C: 101 % of control

## Cc1ccc(CO)cc1C
[3]
  T/C: 101 % of control
[4]
  T/C: 97 % of control
[5]
  T/C: 101 % of control

## CC1(C)Oc2ccccc2O1
[6]
  T/C: 106 % of control
[3]
  T/C: 102 % of control
[4]
  T/C: 93 % of control

## O=C1CSC1=C(c1ccccc1)c1ccccc1
endpoint: mean survival time, dose: 12.5 mg/kg/injection, schedule: Q04DX002 (ip), vehicle: saline with Tween-80
  T/C: 94 % of control
endpoint: mean survival time, dose: 25.0 mg/kg/injection, schedule: Q04DX002 (ip), vehicle: saline with Tween-80
  T/C: 94 % of control
endpoint: mean survival time, dose: 50.0 mg/kg/injection, schedule: Q04DX002 (ip), vehicle: saline with Tween-80
  T/C: 94 % of control

## COc1ccc2c(c1)CCn1c(C)c(COC(=O)NC(C)C)c(COC(=O)NC(C)C)c1-2
endpoint: median survival time, dose: 3.12 mg/kg/injection, schedule: Q01DX009 (ip), vehicle: distilled water + Tween-80
  T/C: 120 % of control
endpoint: median survival time, dose: 3.13 mg/kg/injection, schedule: Q01DX009 (ip), vehicle: distilled water + Tween-80
  T/C: 123 % of control
endpoint: median survival time, dose: 6.25 mg/kg/injection, schedule: Q01DX009 (ip), vehicle: distilled water + Tween-80
  T/C: 114 % of control
endpoint: median survival time, dose: 25.0 mg/kg/injection, schedule: Q01DX009 (ip), vehicle: distilled water + Tween-80
  T/C: 152 % of control and 157 % of control
endpoint: median survival time, dose: 50.0 mg/kg/injection, schedule: Q01DX009 (ip), vehicle: distilled water + Tween-80
  T/C: 114 % of control

## CCCC(=O)OC1C2OP(=O)(O)OCC2OC1n1c(=S)[nH]c2c(N)ncnc21 (configuration not stated)
endpoint: mean survival time, dose: 6.25 mg/kg/injection, schedule: Q01DX005 (ip), vehicle: water
  T/C: 93 % of control
endpoint: mean survival time, dose: 12.5 mg/kg/injection, schedule: Q01DX005 (ip), vehicle: water
  T/C: 97 % of control
endpoint: mean survival time, dose: 25.0 mg/kg/injection, schedule: Q01DX005 (ip), vehicle: water
  T/C: 101 % of control
endpoint: mean survival time, dose: 50.0 mg/kg/injection, schedule: Q01DX005 (ip), vehicle: water
  T/C: 93 % of control
endpoint: mean survival time, dose: 100.0 mg/kg/injection, schedule: Q01DX005 (ip), vehicle: water
  T/C: 101 % of control

## Nc1nc2c(ncn2-c2ccc(-c3ccccc3)cc2)c(=O)[nH]1
endpoint: mean survival time, dose: 100.0 mg/kg/injection, schedule: Q01DX001 (ip), vehicle: saline with Tween-80
  T/C: 93 % of control and 108 % of control
[7]
  T/C: 97 % of control
endpoint: mean survival time, dose: 200.0 mg/kg/injection, schedule: Q01DX001 (ip), vehicle: saline with Tween-80
  T/C: 87 % of control and 89 % of control
[8]
  T/C: 93 % of control
endpoint: mean survival time, dose: 400.0 mg/kg/injection, schedule: Q01DX001 (ip), vehicle: saline with Tween-80
  T/C: 93 % of control
[9]
  T/C: 89 % of control

## COC1=CC=C2[C@@H]3Cc4ccc(OC)c5c4[C@]2(CCN3CCCl)C1O5 (some centres not stated)
endpoint: mean survival time, dose: 25.0 mg/kg/injection, schedule: Q04DX003 (ip), vehicle: DMSO
  T/C: 107 % of control
endpoint: mean survival time, dose: 50.0 mg/kg/injection, schedule: Q04DX003 (ip), vehicle: DMSO
  T/C: 104 % of control
endpoint: mean survival time, dose: 100.0 mg/kg/injection, schedule: Q04DX003 (ip), vehicle: DMSO
  T/C: 102 % of control

## CC(=O)OCCN1C(=O)c2ccccc2C1=O
[10]
  T/C: 97 % of control
[11]
  T/C: 94 % of control
[12]
  T/C: 102 % of control

## C=C1CC(O)C2C(=C)C(=O)OC2C2C(C)C(=O)CC12 (configuration not stated)
endpoint: mean survival time, dose: 6.25 mg/kg/injection, schedule: Q01DX009 (ip), vehicle: Klucel (hydroxypropylcellulose) (HPC)
  T/C: 95 % of control
endpoint: mean survival time, dose: 12.5 mg/kg/injection, schedule: Q01DX009 (ip), vehicle: Klucel (hydroxypropylcellulose) (HPC)
  T/C: 100 % of control
endpoint: mean survival time, dose: 25.0 mg/kg/injection, schedule: Q01DX009 (ip), vehicle: Klucel (hydroxypropylcellulose) (HPC)
  T/C: 105 % of control

## CC1(C)CC(O)(Cc2ccccc2)C(C)(O)c2ccccc21 (configuration not stated)
[4]
  T/C: 102 % of control
[5]
  T/C: 88 % of control
[13]
  T/C: 86 % of control

## O=C(COc1ccc(Cl)cc1)Oc1c(Cl)cc(Cl)cc1Cl
[7]
  T/C: 98 % of control
[8]
  T/C: 98 % of control
[9]
  T/C: 94 % of control

## COC(=O)c1[nH]nc(-c2ccc(N)cc2)c1N
endpoint: mean survival time, dose: 3.13 mg/kg/injection, schedule: Q01DX005 (ip), vehicle: other
  T/C: 114 % of control
endpoint: mean survival time, dose: 6.25 mg/kg/injection, schedule: Q01DX005 (ip), vehicle: other
  T/C: 93 % of control
endpoint: mean survival time, dose: 12.5 mg/kg/injection, schedule: Q01DX005 (ip), vehicle: other
  T/C: 107 % of control
endpoint: mean survival time, dose: 25.0 mg/kg/injection, schedule: Q01DX005 (ip), vehicle: other
  T/C: 93 % of control
endpoint: mean survival time, dose: 50.0 mg/kg/injection, schedule: Q01DX005 (ip), vehicle: other
  T/C: 93 % of control

## Cc1ccc(O)c(/C=N/NC(N)=S)n1
endpoint: mean survival time, dose: 12.5 mg/kg/injection, schedule: Q03HX024 (ip), vehicle: saline
  T/C: 103 % of control
endpoint: mean survival time, dose: 25.0 mg/kg/injection, schedule: Q03HX024 (ip), vehicle: saline
  T/C: 102 % of control
endpoint: mean survival time, dose: 50.0 mg/kg/injection, schedule: Q03HX024 (ip), vehicle: saline
  T/C: 103 % of control

## Cc1ccccc1C(O)(c1ccccc1C)c1ccccc1C
endpoint: mean survival time, dose: 100.0 mg/kg/injection, schedule: Q04DX003 (ip), vehicle: acetone
  T/C: 96 % of control
endpoint: mean survival time, dose: 200.0 mg/kg/injection, schedule: Q04DX003 (ip), vehicle: acetone
  T/C: 98 % of control
endpoint: mean survival time, dose: 400.0 mg/kg/injection, schedule: Q04DX003 (ip), vehicle: acetone
  T/C: 98 % of control

## C=C(Cl)CN(CCCC(=O)O)c1ccccc1
endpoint: mean survival time, dose: 25.0 mg/kg/injection, schedule: Q01DX009 (ip), vehicle: other
  T/C: 95 % of control
endpoint: mean survival time, dose: 50.0 mg/kg/injection, schedule: Q01DX009 (ip), vehicle: other
  T/C: 89 % of control
endpoint: mean survival time, dose: 100.0 mg/kg/injection, schedule: Q01DX009 (ip), vehicle: other
  T/C: 97 % of control

## COc1ccc(NC(=O)Nc2cccc(O)c2)c(Cl)c1
endpoint: mean survival time, dose: 50.0 mg/kg/injection, schedule: Q01DX009 (ip), vehicle: Klucel (hydroxypropylcellulose) (HPC)
  T/C: 95 % of control
endpoint: mean survival time, dose: 100.0 mg/kg/injection, schedule: Q01DX009 (ip), vehicle: Klucel (hydroxypropylcellulose) (HPC)
  T/C: 98 % of control
[10]
  T/C: 102 % of control
endpoint: mean survival time, dose: 200.0 mg/kg/injection, schedule: Q01DX009 (ip), vehicle: Klucel (hydroxypropylcellulose) (HPC)
  T/C: 95 % of control
[11]
  T/C: 112 % of control
[12]
  T/C: 104 % of control

## CC(C)C1=CC2=CCC3C(C)(C#N)CCCC3(C)C2CC1CC#N (configuration not stated)
[4]
  T/C: 92 % of control
[5]
  T/C: 86 % of control
[13]
  T/C: 86 % of control

## O=S(=O)(Cl)C(Cl)(Cl)Cl
[6]
  T/C: 96 % of control
[3]
  T/C: 102 % of control
endpoint: mean survival time, dose: 50.0 mg/kg/injection, schedule: Q04DX003 (ip), vehicle: saline with Tween-80
  T/C: 97 % of control
[4]
  T/C: 95 % of control
[1]
  T/C: 94 % of control

## O=C(O)C1=NN(c2cccc([N+](=O)[O-])c2)C(=O)C1
[4]
  T/C: 114 % of control
[1]
  T/C: 98 % of control
[5]
  T/C: 101 % of control
[14]
  T/C: 104 % of control
[13]
  T/C: 95 % of control
[2]
  T/C: 102 % of control

## N=c1cc([N+](=O)[O-])ccn1O
endpoint: mean survival time, dose: 100.0 mg/kg/injection, schedule: Q01DX001 (ip), vehicle: saline
  T/C: 97 % of control
endpoint: mean survival time, dose: 200.0 mg/kg/injection, schedule: Q01DX001 (ip), vehicle: saline
  T/C: 97 % of control
endpoint: mean survival time, dose: 400.0 mg/kg/injection, schedule: Q01DX001 (ip), vehicle: saline
  T/C: 105 % of control

## CS(=O)(=O)c1nnc(-c2ccccc2)s1
[10]
  T/C: 90 % of control
[11]
  T/C: 90 % of control

## FC(F)(F)c1nn[nH]n1
[15]
  T/C: 100 % of control
endpoint: mean survival time, dose: 200.0 mg/kg/injection, schedule: Q01DX009 (ip), vehicle: saline
  T/C: 104 % of control
endpoint: mean survival time, dose: 400.0 mg/kg/injection, schedule: Q01DX009 (ip), vehicle: saline
  T/C: 98 % of control

## CC1=CCS(=O)(=O)C1
endpoint: mean survival time, dose: 50.0 mg/kg/injection, schedule: Q01DX009 (ip), vehicle: saline
  T/C: 111 % of control
[15]
  T/C: 90 % of control

## CC(O)/C=C/c1ccccc1O (configuration not stated)
[1]
  T/C: 90 % of control
[14]
  T/C: 96 % of control
[2]
  T/C: 93 % of control

## NCc1cnc(N)nc1N
[1]
  T/C: 98 % of control
[14]
  T/C: 102 % of control

## CCCCCCCC(=O)Nc1c(C)cc(C)cc1C
[4]
  T/C: 91 % of control
[5]
  T/C: 98 % of control
[13]
  T/C: 92 % of control
